The test system of series [1] is Na+ channels in superior cervical ganglion (SCG) neurons. Nature of the series: Whole-cell voltage clamp, Na+ current in SCG neurons. Type of series: cell-based, rat. The settings on record: 10 μM. The essentials:
(§1)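 Percent inhibition of control amplitude at steady-state block is the read-out: peak inward Na+ current at 0 mV, sustained K+ current at +50 mV, 35 msec steps every 10 sec from −65 to −55 mV. Recordings used whole-cell clamp of trypsin-dissociated SCG neurons, pH 7.4 external and pipette solutions, compounds applied by local perfusion.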

Series [2] concerns K+ channels in superior cervical ganglion (SCG) neurons. Nature of the series: Whole-cell voltage clamp, K+ current in SCG neurons. Type of series: cell-based, rat. The settings on record: 10 μM. The essentials:
as §1

Series [3] has as its target T1, N-type Ca2+ channels in superior cervical ganglion (SCG) neurons (Rattus norvegicus, UniProt Q02294).
T1 construct: from tissue
Description: Whole-cell voltage clamp, N-type Ca2+ current in SCG neurons. Type of series: cell-based. The conditions noted are these: for IC50: read-out: Inhibition of N-type Ca2+ Current IC50. In outline:
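Whole-cell voltage clamp of acutely trypsin-dissociated rat SCG neurons, with TEA/choline external solution (2 mM Ca2+) and Cs-methanesulfonate pipette solution. Currents evoked by 150 ms steps to +20 mV from −65 to −55 mV holding, every 40 s; compounds applied locally, effect as % inhibition of control amplitude.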

The target in series [4] is T2, N-type Ca2+ channels in IMR-32 cells (Homo sapiens, UniProt Q00975).
T2 construct: host or cells: IMR-32 cells, differentiated with dibutyryl cAMP and bromodeoxyuridine
Nature of the series: Inhibition of N-type calcium flux in IMR-32 cells (Indo-1 fluorescence, nitrendipine present). Type of series: cell-based. The settings on record: for inhibition at 1 µM / inhibition at 10 µM: IMR-32; for IC50: IMR-32 cells, 5 μM nitrendipine, K+ depolarization. The essentials: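 With L-type flux blocked by 5 μM nitrendipine, N-type Ca2+ entry was read as the Indo-1 emission ratio (400/490 nm, excitation 350 nm) at 30° C after KCl depolarization.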

Molecules are shown by their SMILES.

T2 sequence (Q00975 whole entry): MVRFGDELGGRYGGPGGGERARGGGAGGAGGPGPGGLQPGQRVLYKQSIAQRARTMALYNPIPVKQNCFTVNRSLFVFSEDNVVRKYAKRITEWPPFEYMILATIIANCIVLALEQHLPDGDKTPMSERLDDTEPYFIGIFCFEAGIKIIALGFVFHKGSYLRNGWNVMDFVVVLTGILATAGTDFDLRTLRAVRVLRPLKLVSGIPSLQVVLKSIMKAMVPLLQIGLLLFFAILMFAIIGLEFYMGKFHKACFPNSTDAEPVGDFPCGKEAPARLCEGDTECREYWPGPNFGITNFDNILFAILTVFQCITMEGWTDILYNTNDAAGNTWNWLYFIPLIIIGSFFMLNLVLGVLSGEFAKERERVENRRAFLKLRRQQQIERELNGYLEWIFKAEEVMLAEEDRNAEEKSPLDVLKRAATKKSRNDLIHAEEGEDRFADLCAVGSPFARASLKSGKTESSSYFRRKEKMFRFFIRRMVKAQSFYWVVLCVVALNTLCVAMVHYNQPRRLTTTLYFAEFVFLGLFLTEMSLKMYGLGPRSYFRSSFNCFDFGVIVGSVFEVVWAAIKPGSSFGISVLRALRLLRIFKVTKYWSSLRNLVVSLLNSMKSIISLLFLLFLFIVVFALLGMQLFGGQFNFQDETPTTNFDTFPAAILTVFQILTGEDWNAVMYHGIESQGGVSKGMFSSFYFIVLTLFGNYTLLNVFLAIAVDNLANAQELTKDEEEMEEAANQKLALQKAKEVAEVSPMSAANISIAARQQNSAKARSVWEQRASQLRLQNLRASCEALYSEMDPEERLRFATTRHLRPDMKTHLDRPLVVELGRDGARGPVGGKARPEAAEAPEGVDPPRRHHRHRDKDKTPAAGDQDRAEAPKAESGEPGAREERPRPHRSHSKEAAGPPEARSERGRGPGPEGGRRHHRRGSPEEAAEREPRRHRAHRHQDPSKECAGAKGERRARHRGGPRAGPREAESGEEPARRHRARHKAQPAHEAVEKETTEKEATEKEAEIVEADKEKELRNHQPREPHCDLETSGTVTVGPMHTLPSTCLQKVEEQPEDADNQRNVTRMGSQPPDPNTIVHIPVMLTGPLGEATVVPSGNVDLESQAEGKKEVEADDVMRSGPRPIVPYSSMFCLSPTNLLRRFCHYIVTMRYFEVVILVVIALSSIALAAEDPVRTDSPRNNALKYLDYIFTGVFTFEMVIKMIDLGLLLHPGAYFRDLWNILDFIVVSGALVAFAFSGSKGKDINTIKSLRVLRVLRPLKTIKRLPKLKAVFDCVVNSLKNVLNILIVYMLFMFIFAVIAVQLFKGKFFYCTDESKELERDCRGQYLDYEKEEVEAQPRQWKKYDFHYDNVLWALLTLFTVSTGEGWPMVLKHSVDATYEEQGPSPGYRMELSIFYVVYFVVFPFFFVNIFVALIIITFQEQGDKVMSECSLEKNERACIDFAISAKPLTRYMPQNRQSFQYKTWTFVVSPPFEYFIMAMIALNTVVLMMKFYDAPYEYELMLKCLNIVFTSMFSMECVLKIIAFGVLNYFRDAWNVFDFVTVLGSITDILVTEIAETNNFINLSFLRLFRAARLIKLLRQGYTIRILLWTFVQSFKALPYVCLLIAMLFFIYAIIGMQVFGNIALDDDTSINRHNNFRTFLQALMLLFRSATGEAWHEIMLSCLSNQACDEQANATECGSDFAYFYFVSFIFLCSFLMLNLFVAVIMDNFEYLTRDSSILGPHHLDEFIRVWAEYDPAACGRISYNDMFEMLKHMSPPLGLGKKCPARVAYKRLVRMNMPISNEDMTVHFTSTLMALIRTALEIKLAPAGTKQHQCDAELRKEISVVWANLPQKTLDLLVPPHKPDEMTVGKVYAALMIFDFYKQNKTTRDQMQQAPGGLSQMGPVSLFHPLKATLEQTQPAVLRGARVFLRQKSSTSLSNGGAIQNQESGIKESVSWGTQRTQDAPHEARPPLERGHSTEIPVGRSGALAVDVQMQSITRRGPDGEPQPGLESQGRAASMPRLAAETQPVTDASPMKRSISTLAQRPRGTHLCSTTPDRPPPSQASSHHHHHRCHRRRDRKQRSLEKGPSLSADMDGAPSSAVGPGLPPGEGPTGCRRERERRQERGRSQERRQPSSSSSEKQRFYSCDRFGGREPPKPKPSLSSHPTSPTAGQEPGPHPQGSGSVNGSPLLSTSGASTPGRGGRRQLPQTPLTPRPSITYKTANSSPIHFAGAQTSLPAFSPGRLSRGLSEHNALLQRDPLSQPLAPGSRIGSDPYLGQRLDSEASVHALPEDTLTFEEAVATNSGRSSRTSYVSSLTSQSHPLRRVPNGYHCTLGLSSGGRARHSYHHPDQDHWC
T2 sequence (P54289 25-956 partner limits assumed): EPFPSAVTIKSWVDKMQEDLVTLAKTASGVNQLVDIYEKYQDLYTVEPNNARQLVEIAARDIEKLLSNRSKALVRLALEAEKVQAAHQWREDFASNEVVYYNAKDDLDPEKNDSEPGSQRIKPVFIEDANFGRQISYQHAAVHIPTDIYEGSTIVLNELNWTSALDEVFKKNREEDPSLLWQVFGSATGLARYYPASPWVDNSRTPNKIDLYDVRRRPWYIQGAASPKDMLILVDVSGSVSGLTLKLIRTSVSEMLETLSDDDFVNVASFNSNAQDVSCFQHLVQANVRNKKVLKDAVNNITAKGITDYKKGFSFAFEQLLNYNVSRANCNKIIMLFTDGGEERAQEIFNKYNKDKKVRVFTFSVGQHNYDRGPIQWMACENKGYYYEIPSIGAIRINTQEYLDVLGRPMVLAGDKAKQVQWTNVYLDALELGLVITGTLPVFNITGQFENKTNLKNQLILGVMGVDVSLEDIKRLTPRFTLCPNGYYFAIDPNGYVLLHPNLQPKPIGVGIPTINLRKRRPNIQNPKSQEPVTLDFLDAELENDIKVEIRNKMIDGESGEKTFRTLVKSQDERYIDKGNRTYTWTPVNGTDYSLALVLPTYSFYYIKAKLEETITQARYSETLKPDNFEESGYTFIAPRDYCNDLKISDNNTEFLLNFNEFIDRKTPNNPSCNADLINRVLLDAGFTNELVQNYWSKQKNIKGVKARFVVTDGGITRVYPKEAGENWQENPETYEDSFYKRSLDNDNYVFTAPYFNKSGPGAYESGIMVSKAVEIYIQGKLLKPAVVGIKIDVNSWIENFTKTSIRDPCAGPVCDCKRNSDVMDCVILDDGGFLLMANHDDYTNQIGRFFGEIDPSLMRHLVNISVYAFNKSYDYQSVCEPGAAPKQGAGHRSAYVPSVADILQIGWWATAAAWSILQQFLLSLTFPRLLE
T2 sequence (P54289 957-1103 partner limits assumed): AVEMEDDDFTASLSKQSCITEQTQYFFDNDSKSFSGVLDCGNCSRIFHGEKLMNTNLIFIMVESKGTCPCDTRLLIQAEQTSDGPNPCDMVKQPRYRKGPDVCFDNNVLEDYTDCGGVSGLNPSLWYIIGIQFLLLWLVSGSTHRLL
T2 sequence (P54284 whole entry partner): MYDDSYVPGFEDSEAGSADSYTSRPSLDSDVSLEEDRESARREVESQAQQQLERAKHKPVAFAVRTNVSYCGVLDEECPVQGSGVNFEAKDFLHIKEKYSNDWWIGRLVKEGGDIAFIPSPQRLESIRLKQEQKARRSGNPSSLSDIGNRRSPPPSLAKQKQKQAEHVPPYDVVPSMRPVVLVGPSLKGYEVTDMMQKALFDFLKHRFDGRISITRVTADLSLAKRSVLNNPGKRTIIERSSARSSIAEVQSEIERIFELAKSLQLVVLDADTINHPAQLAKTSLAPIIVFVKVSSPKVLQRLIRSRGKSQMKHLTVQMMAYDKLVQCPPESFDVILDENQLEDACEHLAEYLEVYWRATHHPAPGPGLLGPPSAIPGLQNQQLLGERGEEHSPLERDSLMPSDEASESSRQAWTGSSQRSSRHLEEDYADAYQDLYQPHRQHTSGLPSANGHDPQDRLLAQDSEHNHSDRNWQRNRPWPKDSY

In general, melting point refers to the temperature, or range, at which the solid turns liquid. Broadly, the inhibition is the drop in the measured response relative to a control, in per cent. By IC50 is commonly meant the concentration at which inhibition is half-maximal. Take `CCC(C)[C@H](NC(=O)N1CCCCCC1)C(=O)N[C@@H](Cc1ccc(OCc2ccccc2)cc1)C(=O)OC(C)(C)C` (stereo partly drawn) [Example 5, (S)-2-{(S)-2-[(Azepane-1-carbonyl)-amino]-3-methyl-pentanoylamino}-3-(4-benzyloxy-phenyl)-propionic acid tert-butyl ester]: the melting point lay in the range of 53 to 57 °C. Also, the “Inhibition of Na+ Current, % Inhibition at 10 μM” value in series [1] is on record as 10%. Besides, the “Inhibition of K+ Current, % Inhibition at 10 μM” value in series [2] stood at 13%. In series [3], at 10 µM the inhibition was 70% and the half-inhibitory concentration (IC50) was 620 nM. Also, in series [4], the inhibition at 1 µM is 60%, the inhibition at 10 µM was 94% and the IC50 was 820 nM.

`CC(C)C[C@H](NC(=O)N1CCCCCC1)C(=O)N[C@](C)(Cc1ccc(OCc2ccccc2)cc1)C(=O)OC(C)(C)C` [Example 11B, 2(R)-{2(S)-[(Azepane-1-carbonyl)-amino]-4-methyl-pentanoylamino}-3-(4-benzyloxy-phenyl)-2-methyl-propionic acid tert-butyl ester] displayed a melting point of 62 to 66 °C. In addition, in series [1], the “Inhibition of Na+ Current, % Inhibition at 10 μM” value was found to be 48%. For the same compound, the “Inhibition of K+ Current, % Inhibition at 10 μM” value in series [2] came to 46%. Moreover, the inhibition at 10 µM in series [3] was 17%. Also, in series [4], the inhibition at 1 µM was 35%, the inhibition at 10 µM stood at 80% and the IC50 was found to be 2300 nM.

In turn, `CC(C)C[C@H](NC(=O)N1CCCCCC1)C(=O)N[C@@H](Cc1ccc(OC(C)(C)C)cc1)C(=O)OC(C)(C)C` [Example 12, [S-(R*,R*)]-2-{2-[(Azepane-1-carbonyl)-amino]-4-methyl-pentanoylamino}-3-(4-tert-butoxy-phenyl)-propionic acid tert-butyl ester] returned a melting point of 87 to 90 °C. The “Inhibition of Na+ Current, % Inhibition at 10 μM” value in series [1] came out at 14%. For the same compound, the “Inhibition of K+ Current, % Inhibition at 10 μM” value in series [2] amounted to 38%. Moreover, in series [3], testing at 10 µM gave an inhibition of 65% and the IC50 was 6780 nM. In series [4], the inhibition at 1 µM came out at 57%, the inhibition at 10 µM came to 95% and the IC50 came to 480 nM.

As for `COc1ccc(C[C@H](NC(=O)[C@H](CC(C)C)NC(=O)N2CCCCCC2)C(=O)OC(C)(C)C)cc1` [Example 13, [S-(R*,R*)]-2-{2-[(Azepane-1-carbonyl)-amino]-4-methyl-pentanoylamino}-3-(4-methoxy-phenyl)-propionic acid tert-butyl ester], the melting point was in the range of 105 to 106 °C. For the same compound, in series [4], the inhibition at 1 µM was 40%, the inhibition at 10 µM worked out at 86% and the half-inhibitory concentration (IC50) worked out at 1700 nM.

Consider `COC(=O)[C@H](Cc1ccc(OCc2ccccc2)cc1)NC(=O)[C@H](CC(C)C)NC(=O)N1CCCCCC1` [Example 15, [S-(R*,R*)]-2-{2-[(Azepane-1-carbonyl)-amino]-4-methyl-pentanoylamino}-3-(4-benzyloxy-phenyl)-propionic acid methyl ester], for which the melting point was in the range of 72 to 74 °C. In series [4], the inhibition at 1 µM is 45%, the inhibition at 10 µM was determined as 99% and the IC50 stood at 1100 nM.

`CC(C)C[C@H](NS(=O)(=O)c1ccc(C(C)C)cc1)C(=O)N[C@@H](Cc1ccc(OCc2ccccc2)cc1)C(=O)OC(C)(C)C` [Example 37, [S-(R*,R*)]-3-(4-Benzyloxy-phenyl)-2(S)-[2(S)-(4-isopropyl-benzenesulfonylamino)-4-methyl-pentanoylamino]-propionic acid tert-butyl ester] displayed a melting point of 147 to 148 °C. Besides, the “Inhibition of Na+ Current, % Inhibition at 10 μM” value in series [1] was 5%. Also, in series [2], the “Inhibition of K+ Current, % Inhibition at 10 μM” value stood at 9%. Besides, in series [4], the inhibition at 1 µM was 65%, the inhibition at 10 µM was found to be 91% and the IC50 came out at 280 nM.

`CC(C)C[C@H](NS(=O)(=O)c1ccc(Br)cc1)C(=O)N[C@@H](Cc1ccc(OCc2ccccc2)cc1)C(=O)OC(C)(C)C` [Example 38, [S-(R*,R*)]-2-{2-[(4-Bromobenzene-1-sulfonyl-carbonyl)-amino]-4-methyl-pentanoylamino-3-(4-benzyloxyphenyl)-propionic acid, tert-butyl ester] gave a melting point of 148 to 149 °C. For the same compound, in series [4], the inhibition at 1 µM is 48%, the inhibition at 10 µM stood at 83% and the IC50 was determined as 940 nM.

For the compound `CC(C)C[C@H](NS(=O)(=O)N1CCCCCC1)C(=O)N[C@@H](Cc1ccc(OCc2ccccc2)cc1)C(=O)OC(C)(C)C` [Example 40, [S-(R*,R*)]-2-[2-(Azepane-1-sulfonylamino)-4-methyl-pentanoylamino]-3-(4-benzyloxy-phenyl)-propionic acid tert-butyl ester], the melting point lay in the range of 123 to 124 °C. Besides, in series [4], the inhibition at 1 µM came to 48%, the inhibition at 10 µM is 86% and the 50% inhibitory concentration (IC50) worked out at 1000 nM.

In the case of `CC(C)C[C@H](NS(=O)(=O)N1CCCCC1)C(=O)N[C@@H](Cc1ccc(OCc2ccccc2)cc1)C(=O)OC(C)(C)C` [Example 41, [S-(R*,R*)]-3-(4-Benzyloxy-phenyl)-2-[4-methyl-2-(piperidine-1-sulfonylamino)-pentanoylamino]-propionic acid tert-butyl ester], the melting point fell in the range of 125 to 126 °C. In series [4], the inhibition at 1 µM came out at 51%, the inhibition at 10 µM came to 86% and the IC50 is 800 nM.

`CC(C)C[C@H](NS(=O)(=O)N1CCOCC1)C(=O)N[C@@H](Cc1ccc(OCc2ccccc2)cc1)C(=O)OC(C)(C)C` [Example 42, [S-(R*,R*)]-3-(4-Benzyloxy-phenyl)-2-[4-methyl-2-(morpholine-4-sulfonylamino)-pentanoylamino]-propionic acid tert-butyl ester] returned a melting point of 54 to 57 °C. Besides, in series [3], the inhibition at 10 µM came out at 64%. In addition, in series [4], the inhibition at 1 µM is 50%, the inhibition at 10 µM amounted to 95% and the IC50 stood at 950 nM.

Compound `CC(C)C[C@H](NC(=S)NC1CCCCC1)C(=O)N[C@@H](Cc1ccc(OCc2ccccc2)cc1)C(=O)OC(C)(C)C` [Example 47, [S-(R*,R*)]-3-(4-benzyloxy-phenyl)-2-[2-(3-cyclohexyl-thioureido)-4-methyl-pentanoylamino}-propionic acid, tert-butyl ester] yielded a melting point of 161 to 162 °C. In series [4], the inhibition at 1 µM stood at 42%, the inhibition at 10 µM amounted to 63% and the half-inhibitory concentration (IC50) stood at 1300 nM.

Turning to `CC(C)C[C@H](NC(=S)Nc1ccccc1Cl)C(=O)N[C@@H](Cc1ccc(OCc2ccccc2)cc1)C(=O)OC(C)(C)C` [Example 48, [S-(R*,R*)]-3-(4-Benzyloxy-phenyl)-2-{2-[3-(2-chloro-phenyl)-thioureido]-4-methyl-pentanoylamino}-propionic acid tert-butyl ester], the melting point lay in the range of 66 to 67 °C. Further, in series [4], the inhibition at 1 µM worked out at 52%, the inhibition at 10 µM stood at 81% and the IC50 was found to be 1200 nM.
